Test results published in PMC12040169 (PLOS Biology, 2025).

Assay: in vitro
Details: human, hela cells, % viability

| SMILES | viability at 28.5 h, 10 µM |
| --- | --- |
| CC(=O)Nc1ccc(Oc2cc(C)nc(C3CCCNC3)c2)cc1 (centres unmarked) [CBK283443] | 88.1% |
| CC(Cn1cccn1)NS(=O)(=O)c1ccc(N2CCCC2=O)cc1 (centres unmarked) [CBK305606] | 83.7% |
| Nc1ncc(-c2cccc(C(=O)O)c2)nc1N1CCOCC1 [CBK063415] | 101% |
| COCc1ccc(C(=O)N2CCC(c3cc4cnccc4[nH]3)CC2)cc1 [CBK283448] | 99.3% |
| O=C(c1ccco1)N1CCN(c2cncc(-c3ccc4ccccc4c3)n2)CC1 [CBK065184] | 89% |
| COC(=O)C1C(=O)Oc2ccc3ccccc3c2C1C(C)C(=O)c1ccc(Br)cc1 (centres unmarked) [CBK266126] | 114% |
| CCOC(=O)N1CCC(NS(=O)(=O)c2cc(Br)c(Cl)s2)CC1 [CBK045472] | 95.8% |
| Cc1c(S(=O)(=O)Nc2cccc(C(=O)OCC3CCCN(C)C3)c2)sc2ccc(Cl)cc12 (centres unmarked) [CBK167735G] | 109% |
| CN1C(/C=N/O)=C(O)c2ccccc2S1(=O)=O [CBK010098] | 94.1% |
| c1ccc(CN2CC[C@H](c3nnc(-c4cccnc4)o3)C2)cc1 [CBK289397] | 85.6% |
| COc1cc2c(cc1OC)C1(CCN(CCc3c[nH]c4ccccc34)CC1)NC(=O)C2 [CBK039992] | 99.3% |
| Cn1c(SCCCN2C(=O)c3cccc4cccc(c34)C2=O)nnc1-c1ccncc1 [CBK268951] | 93.1% |
| CCOC(=O)c1cnc2nc(N3CCOCC3)nn2c1N [CBK007371] | 96.2% |
| COc1cccc(C(=O)NCCC(=O)N2CCc3ccccc3C2)c1 [CBK307575] | 84.3% |
| N[C@@H]1CCCN(C(=O)c2ccccc2)[C@H]1c1ccccc1F [CBK281405] | 106% |
| Cc1cccn2cc(CNC(=O)C(C)(C)C)nc12 [CBK304348] | 83.9% |
| Cc1nc(CC(=O)N2CCC[C@@H]3[C@H]2CCCCc2ccccc2OCC(=O)N3C)cs1 [CBK292091] | 113% |
| O=C1CCN(Cc2nc(-c3cccc(C(F)(F)F)c3)no2)CCN1 [CBK306368] | 109% |
| Cc1cc(C)n2nc(CC(=O)N3CCCC3c3ccccn3)nc2n1 (centres unmarked) [CBK304408] | 90.8% |
| COc1ccc(NC(=O)c2ccc(-c3nnn[nH]3)cc2)cc1Cl [CBK295139] | 114% |
| Cn1cccc1C(=O)N1CCC(OCc2cnc(-c3ccc(S(C)(=O)=O)cc3)cn2)CC1 [CBK172007] | 106% |

| SMILES | viability at 28.5 h, 10 µM |
| --- | --- |
| CC1CN(S(=O)(=O)c2ccc(NC(=O)c3nc(SCc4ccccc4)ncc3Cl)cc2)CC(C)O1 (centres unmarked) [CBK268930] | 89.3% |
| CCN(CC)C(=O)c1ccccc1NS(=O)(=O)Cc1ccccc1[N+](=O)[O-] [CBK045428] | 99.9% |
| O=C(Cn1cccc(C(=O)NCc2ccccc2)c1=O)Nc1cc(F)ccc1N1CCCC1 [CBK286041] | 101% |
| Cc1ccc(C(=O)n2c(=S)nc3ccccn32)cc1 [CBK025729] | 91.9% |
| CC1CCCC(C)N1C(=O)Cn1c(=O)n(C)c2ncccc21 (centres unmarked) [CBK282389] | 107% |
| COc1cccc2cc(C(=O)NCCc3ccc(O)cc3)oc12 [CBK149802] | 93.9% |
| CCCNS(=O)(=O)c1cc2c3c(c1)c(C)cc(=O)n3CCC2 [CBK307547] | 97.1% |
| N/N=C1\C2CN3CCN(C2)CC1(Cc1ccccc1)C3 [CBK261977] | 91.8% |
| CCCc1ccc(S(=O)(=O)Nc2ccc(C(=O)OC)cc2)cc1 [CBK028682] | 99.5% |
| COc1cccc([C@H]2CN(C(=O)c3ccccc3)[C@@H]3CCN(Cc4ccccc4F)C[C@H]23)c1 [CBK285608] | 97.6% |
| CCCC/C=C/c1cncc(N[C@H](CO)C(C)C)n1 [CBK065314] | 97% |
| CN1CCN(C(=O)Cn2cc(C(=O)NC3CCCCC3)ccc2=O)C(c2ccccc2)C1 (centres unmarked) [CBK286102] | 87.3% |
| COc1ccc(Br)cc1S(=O)(=O)Nc1c(C(=O)O)[nH]c2ccccc12 [CBK049887] | 97.5% |
| O=C(COc1ccc(Br)cc1)Nc1ccc(CN2CCCCC2)cc1 [CBK266181] | 99.5% |
| O=C(CCCn1ccnc1)N1CCCC(c2cc3cccnc3[nH]2)C1 (centres unmarked) [CBK284959] | 107% |
| COC(=O)c1c(COC(=O)c2cnc(Cl)c(Cl)c2)nc2ccccc2c1C [CBK296940] | 102% |
| O=C1c2ccc(-c3ccc4c(c3)C(=O)N(Cc3ccco3)C4=O)cc2C(=O)N1Cc1ccco1 [CBK266578] | 93.3% |
| CSc1nsc(SCC(=O)Nc2ccc3c(c2)OCO3)n1 [CBK270044] | 88.6% |
| Nc1nc(=O)n([C@H]2C[C@@H](O)[C@@H](CO)O2)cc1O [CBK201221] | 98.2% |
| CCC(NC(=O)CCN1Cc2ccccc2C1=O)c1ccc(F)cc1 (centres unmarked) [CBK282657] | 104% |
| O=C(O)/C=C/C(=O)NN1C(=O)c2ccccc2C1=O [CBK286962] | 86.9% |

| SMILES | viability at 28.5 h, 10 µM |
| --- | --- |
| Cc1noc([C@@H]2C[C@H](NS(=O)(=O)c3ccc(C#N)cc3)CN2C)n1 [CBK288874] | 113% |
| Cc1csc2nc(-c3ccccc3)cn12 [CBK098072] | 108% |
| Cc1ccccc1S(=O)(=O)Nc1cc(CN2C[C@H](C)NC[C@H]2C)c2occc2c1 [CBK107210T] | 108% |
| O=C(O)c1cccc(Cn2c(C3CC3)n[nH]c2=S)c1 [CBK288401] | 87.1% |
| O=C(CSc1ncccn1)N/N=C/c1ccncc1 [CBK262401] | 103% |
| O=C(CCCN1C(=O)c2cccc3cccc(c23)C1=O)NCc1cccnc1 [CBK262190] | 73.9% |
| COc1ccc(N2C(N)=C(C#N)C(c3cccc(OC(C)C)c3)C3=C2CCS3(=O)=O)cc1 (centres unmarked) [CBK293992] | 85.6% |
| Cc1ccc(-c2csc(NC(=O)c3c(C)noc3C)c2C(=O)NC2CC2)cc1 [CBK268141] | 95.1% |
| COc1ccc(-c2cc(C(F)(F)F)nc(SCC(=O)N(C)c3ccccc3)n2)cc1OC [CBK267628] | 112% |
| O=C1CC(N2CCC(c3nc4ccccc4s3)CC2)C(=O)N1Cc1ccccc1 (centres unmarked) [CBK267438] | 90% |
| O=C1OC(c2ccccc2)=C/C1=C1/C(=O)Nc2ccccc21 [CBK115375] | 102% |
| CCOC(=O)Cn1ccc2ccnc(-c3cccc(OC)c3)c21 [CBK284707] | 89.6% |
| Fc1ccccc1CN1CCN(Cc2ccccn2)CC1 [CBK265194G] | 100% |
| Cn1ccc(CN2CCOC(c3nc(C(C)(C)C)cs3)C2)cc1=O (centres unmarked) [CBK305771] | 108% |
| C=CCSC1=N/C(=C\c2ccc(C(=O)O)cc2)C(=O)S1 [CBK265057] | 95.7% |
| Cc1ccc(Nc2cc(-c3cccnc3)ncn2)cc1NS(C)(=O)=O [CBK091147] | 91.2% |
| COc1ccc(OC)c(NC(=O)CN2CCC(C(N)=O)(N3CCCCC3)CC2)c1 [CBK268462] | 98.2% |
| CC(=O)Nc1ccc(S(=O)(=O)NC2(C(F)(F)F)C(=O)Nc3c2c(=O)[nH]c(=S)n3Cc2ccco2)cc1 (centres unmarked) [CBK268395] | 96.8% |
| COc1ccc([C@@]23CC[C@@H](NC(=S)NC(C)=O)C[C@@H]2N(Cc2ccccc2)CC3)cc1OC [CBK025503T] | 90.2% |
| CC(C)NC(=O)C1CC2CCC1(C)CC21NC(=O)c2ccccc2O1 (centres unmarked) [CBK285261] | 92% |
| CC(C)NC(=O)[C@H]1CN2CCC1C[C@@H]2Cn1cc(C2(O)CCCCC2)nn1 (some centres unmarked) [CBK288732] | 99.3% |

| SMILES | viability at 28.5 h, 10 µM |
| --- | --- |
| Cc1cnc(CNS(=O)(=O)c2ccc(F)cc2)cn1 [CBK050489] | 107% |
| COc1ccc(C(=O)Nc2cc(C)c3c(=O)oc4ccccc4c3n2)cc1OC [CBK287442] | 89% |
| Cn1cnc(C(=O)N2CCC[C@@H]3NC(=O)c4ccccc4OCCCCC[C@@H]32)c1 [CBK292122] | 114% |
| CN1[C@@H]2CC[C@H]1C[C@@H](N1Cc3cc4ccccc4n3C1=O)C2 [CBK017722] | 124% |
| O=C(CSCc1ccccc1)Nc1ccc(S(=O)(=O)N2CCOCC2)cc1 [CBK087885] | 93.3% |
| Nc1nnc(Sc2nc3cc(Cl)c(Cl)cc3nc2N2CCCC2)s1 [CBK115267] | 98.9% |
| CN1CCN(CCC(=O)N/N=C/c2cccc(Br)c2)CC1 [CBK261496] | 96.6% |
| C#CCNC(=O)c1nn(Cc2ccc(CN3C(=O)CCC3=O)cc2)c2ccc(OC)cc12 [CBK048668] | 86.2% |
| CCOc1ccccc1NC(=O)NCc1cccnc1 [CBK267026] | 107% |
| N#Cc1c(Nc2cccc(F)c2)sc2c(O)cc(O)nc12 [CBK270250] | 100% |
| CN1CCCC1CCNC(=O)c1ccc(-c2ccoc2)nc1 (centres unmarked) [CBK156255] | 99.8% |
| CCCN1C(=O)COc2ccc(-c3noc(-c4ccccn4)n3)cc21 [CBK288596] | 92.1% |
| N#C/C(=C/c1ccc(-c2ccc(S(N)(=O)=O)cc2)o1)S(=O)(=O)c1ccc(Cl)cc1 [CBK266383] | 110% |
| Oc1ccc2ccccc2c1/C=N/Nc1nc(NCc2ccccc2)nc(N2CCOCC2)n1 [CBK261233] | 93.8% |
| C=CCNC(=O)C1CC2CCC1(C)C[C@@]21NC(=O)c2ccccc2N1 (some centres unmarked) [CBK284442] | 86.6% |
| CN(C)CCCNC(=O)c1cc(-c2ccc(Cl)cc2)on1 [CBK116557] | 90.2% |
| O=C(CS(=O)(=O)c1ccccc1)N1CCN2C(=O)N(C3CCCCC3)C(=O)[C@H]2C1 [CBK289580] | 89.6% |
| O=C(c1cc(F)c(F)cc1F)N1CCC2(CCCN(C(=O)c3cccc4[nH]ccc34)C2)C1 (centres unmarked) [CBK131544] | 97.3% |
| COCCNC(=O)N(CCC#N)C1CCCCC1 [CBK156358] | 97.3% |
| CC(C)C(=O)NCCN1CCOCC1 [CBK034322] | 115% |

Same assay, conditions: human, hela cells, % viability, bulk resorufin, single well

| SMILES | viability at 28.5 h, 10 µM |
| --- | --- |
| COc1cc(/C=C2\C(=O)NC(=S)N(c3cccc(C)c3C)C2=O)ccc1OC(C)C(=O)O (centres unmarked) [CBK265132] | 98.7% |
| CC(C)(C)NC(=O)N1CCC2(CC1)OCc1cc(Br)ccc1O2 [CBK060739] | 106% |
| Cc1ccc(Cn2nc(C(=O)Nc3cc(C)nn3C)c3ccccc32)cc1 [CBK047842] | 77.9% |
